Here are results for 2 molecules from article PMC11877502, “Cytotoxic Stilbenoids, Hetero- and Homodimers of Homoisoflavonoids from Prospero autumnale” (Journal of Natural Products, 2025).

For the first experiment, the system named is HEP3B. Kind of experiment: Annexin V/propidium iodide staining. Format: cell-based, human. The following applies: 48 h at IC50 concentration, flow cytometry. On the procedure: Apoptosis, necrosis, and viability were analyzed by Annexin V-FITC and […] (PI) staining. For this purpose, cells were seeded at 5 × 10^5 cells per 60 mm dish and incubated overnight to allow attachment. Then, cells were treated with the selected compounds (1, 2, 4, and 10) for 48 h at respective IC50 concentrations. For flow cytometric analysis, cells were detached with Trypsin-EDTA solution (Thermo Fisher Scientific #25200056), washed with Dulbecco’s phosphate buffered saline (DPBS, Thermo Fisher Scientific #14190094) solution, and suspended in 1 mL of ice-cold Annexin V Binding Buffer (BioLegend #422201). Cells were then stained with 1 μL of Annexin V-FITC (Biovision #1001) and 1 μL PI (Thermo Fisher Scientific # P1304MP, diluted to 250 μg/mL in DPBS) by incubating cells on ice for 15 min in the dark. Cells were then immediately analyzed on a Beckman Coulter DxFLEX flow cytometry system. Each analysis was performed in triplicate, and 25 × 10^3 events were counted for each tube. Evaluations were done with CytEXPERT software.
For the molecule `O=C1/C(=C/c2ccc(O)cc2)COc2cc(O)cc(O)c21` [Compound 4, (E)-4′-O-demethyleucomin], the “apoptosis/necrosis vs control, HEP3B” value is “significantly increased early apoptosis along with necrosis”.

A further experiment relates to LoVo. As to the kind of experiment: Annexin V/propidium iodide staining. Format: cell-based, human. To be noted: 48 h at IC50 concentration, flow cytometry. The protocol:
(§1) Apoptosis, necrosis, and viability were analyzed by Annexin V-FITC and […] (PI) staining. For this purpose, cells were seeded at 5 × 10^5 cells per 60 mm dish and incubated overnight to allow attachment. […] Cells were then immediately analyzed on a Beckman Coulter DxFLEX flow cytometry system. Each analysis was performed in triplicate, and 25 × 10^3 events were counted for each tube. Evaluations were done with CytEXPERT software.
Turning to `COc1cc(O)cc(/C=C/c2ccc(O)cc2)c1` [Compound 2, pinostilbene], the “apoptosis/necrosis vs control, LoVo” value is reported as “apoptosis along with necrosis”.

The next experiment relates to MDA-MB-231. Kind of experiment: Annexin V/propidium iodide staining. Format: cell-based, human. The following applies: 48 h at IC50 concentration, flow cytometry. The protocol:
as §1
Regarding `COc1cc(O)cc(/C=C/c2ccc(O)cc2)c1` [Compound 2, pinostilbene], the “apoptosis/necrosis vs control, MDA-MB-231” value was “more efficient in inducing apoptosis compared to 10”.

For the next experiment, the system named is human cancer cell lines (HCT116, LoVo, DU145, PC3, HEP3B, HEPG2, MCF7, MDA-MB-231). Kind of experiment: MTS cytotoxicity assay, panel statements. To be noted: 48 h, span over compounds and cell lines, read-out: IC50 toward one or more cancer cell lines. Format: cell-based. On the procedure:
(§2) Stock solutions of extracts and compounds were prepared by dissolving in DMSO (Sigma-Aldrich, no. D2650) at the concentrations of 100 mg/mL and 100 mM for extracts and compounds, respectively. […] Untreated cells were used as a control, while plain culture medium was used as a blank. Viability was determined with MTS Assay (Abcam #ab197010) according to the manufacturer’s instructions. Absorbance at 490 nm was measured with a spectrophotometer (Epoch, BioTek Instruments). Relative viability ratios were calculated with the equation given below, and IC50 values were determined in GraphPad Prism (version 8.0). [drawing 2]
With `COc1cc(O)cc(/C=C/c2ccc(O)cc2)c1` [Compound 2, pinostilbene], the IC50 was 8.2 to 37.6 µM.

With `O=C1/C(=C/c2ccc(O)cc2)COc2cc(O)cc(O)c21` [Compound 4, (E)-4′-O-demethyleucomin], the IC50 was in the range of 8.2 to 37.6 µM.

Another experiment deals with LoVo. Kind of experiment: MTS cytotoxicity assay. Format: cell-based. To be noted: Homo sapiens, 48 h, triplicate, read-out: IC50 ± SEM LoVo. On the procedure: as §2
As for `COc1cc(O)cc(/C=C/c2ccc(O)cc2)c1` [Compound 2, pinostilbene], the IC50 came out at 8.2 ± 0.4 µM.

As for `O=C1/C(=C/c2ccc(O)cc2)COc2cc(O)cc(O)c21` [Compound 4, (E)-4′-O-demethyleucomin], the IC50 amounted to 40.4 ± 2.9 µM.

The test system of another experiment is MDA-MB-231. As to the kind of experiment: MTS cytotoxicity assay. Format: cell-based. The following applies: Homo sapiens, 48 h, triplicate, read-out: IC50 ± SEM MDA-MB-231. The protocol: as §2
Take `COc1cc(O)cc(/C=C/c2ccc(O)cc2)c1` [Compound 2, pinostilbene]: the half-inhibitory concentration (IC50) came out at 23.3 ± 1.4 µM.

For `O=C1/C(=C/c2ccc(O)cc2)COc2cc(O)cc(O)c21` [Compound 4, (E)-4′-O-demethyleucomin], the IC50 came to 77.5 ± 3.9 µM.

A further experiment deals with PC3. Kind of experiment: MTS cytotoxicity assay. Format: cell-based. To be noted: Homo sapiens, PC-3, 48 h, triplicate, read-out: IC50 ± SEM PC3. On the procedure: as §2
Regarding `COc1cc(O)cc(/C=C/c2ccc(O)cc2)c1` [Compound 2, pinostilbene], the IC50 came to 88.7 ± 10.9 µM.

For `O=C1/C(=C/c2ccc(O)cc2)COc2cc(O)cc(O)c21` [Compound 4, (E)-4′-O-demethyleucomin], the IC50 was found to be 88.1 ± 8.6 µM.

Another experiment relates to HEPG2. As to the kind of experiment: MTS cytotoxicity assay. The following applies: Homo sapiens, 48 h, triplicate, read-out: IC50 ± SEM HEPG2. Format: cell-based. On the procedure: as §2
For `COc1cc(O)cc(/C=C/c2ccc(O)cc2)c1` [Compound 2, pinostilbene], the IC50 worked out at 51.8 ± 10 µM.

`O=C1/C(=C/c2ccc(O)cc2)COc2cc(O)cc(O)c21` [Compound 4, (E)-4′-O-demethyleucomin]: the IC50 was > 100 µM.

In a further experiment the test system is MCF7. As to the kind of experiment: MTS cytotoxicity assay. Format: cell-based. The following applies: Homo sapiens, 48 h, triplicate, read-out: IC50 ± SEM MCF7. The protocol: as §2
Regarding `COc1cc(O)cc(/C=C/c2ccc(O)cc2)c1` [Compound 2, pinostilbene], the IC50 worked out at 95.7 ± 15 µM.

Take `O=C1/C(=C/c2ccc(O)cc2)COc2cc(O)cc(O)c21` [Compound 4, (E)-4′-O-demethyleucomin]: the IC50 stood at 95.3 ± 4.7 µM.

The subject of another experiment is DU145. As to the kind of experiment: MTS cytotoxicity assay. Format: cell-based. The following applies: Homo sapiens, DU-145, 48 h, triplicate, read-out: IC50 ± SEM DU145. On the procedure: as §2
For `COc1cc(O)cc(/C=C/c2ccc(O)cc2)c1` [Compound 2, pinostilbene], the IC50 is > 100 µM.

On to `O=C1/C(=C/c2ccc(O)cc2)COc2cc(O)cc(O)c21` [Compound 4, (E)-4′-O-demethyleucomin], for which the IC50 is > 100 µM.

The next experiment has as its system HCT116. As to the kind of experiment: MTS cytotoxicity assay. Format: cell-based. The following applies: Homo sapiens, HCT-116, 48 h, triplicate, read-out: IC50 ± SEM HCT116. The protocol:
as §2
Turning to `COc1cc(O)cc(/C=C/c2ccc(O)cc2)c1` [Compound 2, pinostilbene], the concentration for half-maximal inhibition (IC50) was determined as 71.3 ± 12.6 µM.

With `O=C1/C(=C/c2ccc(O)cc2)COc2cc(O)cc(O)c21` [Compound 4, (E)-4′-O-demethyleucomin], the IC50 came out at 45.8 ± 8.4 µM.

For a further experiment, the system named is HEP3B. Kind of experiment: MTS cytotoxicity assay. Format: cell-based. The following applies: Homo sapiens, 48 h, triplicate, read-out: IC50 ± SEM HEP3B. On the procedure: as §2
For the molecule `COc1cc(O)cc(/C=C/c2ccc(O)cc2)c1` [Compound 2, pinostilbene], the IC50 stood at 93.5 ± 8.9 µM.

Regarding `O=C1/C(=C/c2ccc(O)cc2)COc2cc(O)cc(O)c21` [Compound 4, (E)-4′-O-demethyleucomin], the IC50 is 33.7 ± 3 µM.

Another experiment concerns LoVo. Kind of experiment: DNA content (cell cycle) analysis. Format: cell-based, human. The following applies: 48 h, DNA content by flow cytometry. The protocol:
(§3) To investigate cell cycle progression, cells were seeded as 5 × 10^5 cells per 60 mm dish and incubated overnight for attachment. After incubating with the selected compounds for 48 h, cells were detached with Trypsin-EDTA, washed once with DPBS, and fixed with ice-cold 70% EtOH by storing tubes at 4 °C for an hour. Then, EtOH was discarded by centrifuging cells, and the pellet was suspended in 500 μL cell cycle kit reagent (Beckman Coulter #C03551). Tubes were incubated at room temperature under the dark for 30 min. The experiment was done on triplicate, and 5 × 10^4 cells per test were acquired at a medium flow rate with the Beckman Coulter DxFLEX flow cytometry system. Analyses were performed with ModFit LT version 4.0.
Regarding `COc1cc(O)cc(/C=C/c2ccc(O)cc2)c1` [Compound 2, pinostilbene], the “cell cycle effect, LoVo” value is “S phase arrest”.

Another experiment relates to MDA-MB-231. Kind of experiment: DNA content (cell cycle) analysis. Format: cell-based, human. The following applies: 48 h, DNA content by flow cytometry. The protocol: as §3
Turning to `COc1cc(O)cc(/C=C/c2ccc(O)cc2)c1` [Compound 2, pinostilbene], the “cell cycle effect, MDA-MB-231” value was “S phase arrest”.

In another experiment the test system is HEP3B. Kind of experiment: DNA content (cell cycle) analysis. Format: cell-based, human. To be noted: 48 h, DNA content by flow cytometry. On the procedure:
as §3
For the molecule `O=C1/C(=C/c2ccc(O)cc2)COc2cc(O)cc(O)c21` [Compound 4, (E)-4′-O-demethyleucomin], the “cell cycle effect, HEP3B” value was “G2/M phase arrest”.

A further experiment concerns L929 nontumor mouse fibroblast cell line. Kind of experiment: MTS cytotoxicity assay, nontumor cell line. Format: cell-based. To be noted: 48 h, triplicate, read-out: IC50 ± SEM L929. On the procedure: as §2
Take `COc1cc(O)cc(/C=C/c2ccc(O)cc2)c1` [Compound 2, pinostilbene]: the IC50 was determined as 13.4 ± 1.7 µM.

On to `O=C1/C(=C/c2ccc(O)cc2)COc2cc(O)cc(O)c21` [Compound 4, (E)-4′-O-demethyleucomin], for which the IC50 is > 100 µM.
